In general, EC50 refers to the concentration that produces a half-maximal response.

Test [1] concerns the target T1, ΔF508-CFTR (Homo sapiens, UniProt P13569, DEL508-508).
T1 construct: host or cells: CFBE41o-, doxycycline-inducible
The experiment in a line: CFTR cell surface levels using HRP-tagged ΔF508-CFTR expressing CFBE cells, in the presence of a co-corrector. In kind it is cell-based. An outline of the steps:
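Cells were seeded with 0.5 μg/mL doxycycline and held 68 h at 37 °C. Test compounds plus 3 μM co-corrector (final 0.1% DMSO) were then added for 20 h at 33 °C. Washed cells received HRP substrate, and luminescence was normalized between DMSO and 3 μM co-corrector controls.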

Test [2] has as its target T1, ΔF508-CFTR. The experiment in a line: CFTR cell surface levels using HRP-tagged ΔF508-CFTR expressing CFBE cells, intrinsic corrector capacity. It counts as cell-based. An outline of the steps:
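Here the cells express ΔF508-CFTR with horseradish peroxidase inserted in extracellular loop 4, so only rescued channel at the surface gives luminescent signal. Compounds act on their own, 20 h at the reduced temperature of 33 °C; values are percent activity relative to DMSO and a 3 μM corrector.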

The mark [3] stands for this setting: HRP-tagged ΔF508-CFTR expressing CFBE cells, in the presence of 3 μM co-corrector.
The mark [4] stands for this setting: HRP-tagged ΔF508-CFTR expressing CFBE cells, intrinsic corrector capacity (no co-corrector), 33° C., 20 hours.
[5] abbreviates: HRP-tagged ΔF508-CFTR expressing CFBE cells, in the presence of 3 μM co-corrector, read-out: EC50.
Where [6] appears, read: HRP-tagged ΔF508-CFTR expressing CFBE cells, intrinsic corrector capacity (no co-corrector), 33° C., 20 hours, read-out: EC50.
[7] abbreviates: HRP-tagged ΔF508-CFTR CFBE41o- cells, compounds alone (intrinsic corrector capacity), 20 hours at 33° C., positive control 3 μM corrector.
[8] abbreviates: HRP-tagged ΔF508-CFTR CFBE41o- cells, compounds alone (intrinsic corrector capacity), 20 hours at 33° C., read-out: EC50.

T1 sequence (P13569 with tags, fused parts or gaps DEL508-508): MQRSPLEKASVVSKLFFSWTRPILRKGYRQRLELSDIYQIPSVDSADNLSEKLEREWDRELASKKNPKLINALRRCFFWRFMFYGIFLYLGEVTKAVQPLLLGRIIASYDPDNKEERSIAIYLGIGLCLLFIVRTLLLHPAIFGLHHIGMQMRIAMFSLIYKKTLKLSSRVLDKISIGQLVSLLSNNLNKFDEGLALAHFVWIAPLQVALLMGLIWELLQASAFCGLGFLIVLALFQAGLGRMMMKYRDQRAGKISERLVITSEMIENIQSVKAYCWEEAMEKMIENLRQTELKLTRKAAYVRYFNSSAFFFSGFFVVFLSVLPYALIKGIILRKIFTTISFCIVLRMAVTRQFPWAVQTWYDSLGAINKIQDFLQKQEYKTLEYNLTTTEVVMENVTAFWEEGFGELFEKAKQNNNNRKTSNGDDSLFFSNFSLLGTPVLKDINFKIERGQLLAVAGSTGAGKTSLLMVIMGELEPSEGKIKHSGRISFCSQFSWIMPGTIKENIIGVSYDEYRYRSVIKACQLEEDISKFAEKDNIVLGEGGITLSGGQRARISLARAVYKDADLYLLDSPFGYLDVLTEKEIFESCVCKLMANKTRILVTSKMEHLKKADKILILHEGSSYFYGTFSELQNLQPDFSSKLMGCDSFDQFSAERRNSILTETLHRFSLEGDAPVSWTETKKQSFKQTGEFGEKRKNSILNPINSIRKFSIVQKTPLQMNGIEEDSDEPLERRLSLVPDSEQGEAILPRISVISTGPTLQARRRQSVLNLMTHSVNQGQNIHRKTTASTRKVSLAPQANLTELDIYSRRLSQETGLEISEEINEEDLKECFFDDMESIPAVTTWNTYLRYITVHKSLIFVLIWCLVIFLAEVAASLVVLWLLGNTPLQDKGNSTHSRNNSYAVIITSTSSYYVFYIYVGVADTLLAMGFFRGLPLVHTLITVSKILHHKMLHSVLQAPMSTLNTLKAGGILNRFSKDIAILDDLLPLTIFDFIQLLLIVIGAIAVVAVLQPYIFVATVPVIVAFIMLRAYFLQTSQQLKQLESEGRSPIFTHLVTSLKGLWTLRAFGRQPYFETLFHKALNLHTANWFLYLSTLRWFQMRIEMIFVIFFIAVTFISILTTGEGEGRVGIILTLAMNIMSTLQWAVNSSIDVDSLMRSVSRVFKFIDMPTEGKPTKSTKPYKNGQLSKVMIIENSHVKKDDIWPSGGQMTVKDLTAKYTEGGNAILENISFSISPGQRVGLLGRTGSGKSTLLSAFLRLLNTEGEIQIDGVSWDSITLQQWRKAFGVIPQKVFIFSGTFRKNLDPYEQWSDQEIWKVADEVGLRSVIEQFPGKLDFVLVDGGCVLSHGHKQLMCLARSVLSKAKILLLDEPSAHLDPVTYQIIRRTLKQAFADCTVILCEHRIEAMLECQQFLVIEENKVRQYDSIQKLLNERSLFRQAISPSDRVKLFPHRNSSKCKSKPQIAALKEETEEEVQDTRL

As to `CC(C)(C)OC(=O)N1CC[C@@H]2CN(c3cc(C(=O)O)nc4c3c(C3CCC3)nn4-c3ccccc3)CC[C@@H]21` (racemic) [compound 549, rac-4-[(3aR,7aS)-1-(tert-butoxycarbonyl)octahydro-5H-pyrrolo[3,2-c]pyridin-5-yl]-3-cyclobutyl-1-phenyl-1H-pyrazolo[3,4-b]pyridine-6-carboxylic acid], the EC50 is 61.7 nM in test [1] and 211 nM in test [2]. In addition, the results for the “% Activation” value in test [1] (setting [3]) and in test [2] (setting [4]) were 467.2% and 302.2%, respectively.
Regarding `CC(C)c1nn(-c2ccc(F)cc2)c2nc(C(=O)O)cc(N3CCC4(CCO4)CC3)c12` [compound 398, 1-(4-fluorophenyl)-4-(1-oxa-7-azaspiro[3.5]nonan-7-yl)-3-(propan-2-yl)-1H-pyrazolo[3,4-b]pyridine-6-carboxylic acid], the “% Activation” value in test [1] (setting [3]) was found to be 275.7%; in test [2] (setting [4]), 96.49%. In addition, the EC50 in test [1] (setting [5]) stood at 737 nM; in test [2] (setting [6]) it was 1290 nM.
For the compound `COCCN(C)c1cc(C(=O)O)nc2c1c(C(C)C)nn2-c1cccc(C)c1` [compound 209, 4-[(2-methoxyethyl)(methyl)amino]-1-(3-methylphenyl)-3-(propan-2-yl)-1H-pyrazolo[3,4-b]pyridine-6-carboxylic acid], the entries for the “% Activation” value in test [1] (setting [3]) and in test [2] (setting [7]) were 411.9% and 165.6%, respectively. Further, the EC50 in test [1] (setting [5]) is 787 nM; in test [2] (setting [8]), 1360 nM.
Take `CCOCC1(F)CCN(c2cc(C(=O)O)nc3c2c(C2CCC2)nn3-c2ccccc2)CC1` [compound 461, 3-cyclobutyl-4-[4-(ethoxymethyl)-4-fluoropiperidin-1-yl]-1-phenyl-1H-pyrazolo[3,4-b]pyridine-6-carboxylic acid]: the entries for the “% Activation” value in test [1] (setting [3]) and in test [2] (setting [4]) were 328.05% and 158.55%, respectively. Moreover, the EC50 is 343 nM in test [1] (setting [5]) and 818 nM in test [2] (setting [6]).
On to `COCC1CCN(c2cc(C(=O)O)nc3c2c(C2CCC2)nn3-c2ccnc(C3CCOCC3)c2)CC1` [compound 817, 3-cyclobutyl-4-[4-(methoxymethyl)piperidin-1-yl]-1-[2-(oxan-4-yl)pyridin-4-yl]-1H-pyrazolo[3,4-b]pyridine-6-carboxylic acid], for which the “% Activation” value in test [1] (setting [3]) is on record as 384.9%; in test [2] (setting [4]) it was 168%. For the same compound, the results for the EC50 in test [1] (setting [5]) and in test [2] (setting [6]) were 46.4 nM and 152 nM, respectively.
For the compound `Cc1nn(-c2cccc(N(C)C)c2)c2nc(C(=O)O)cc(-c3cnc(N4CCOCC4)nc3)c12` [compound 90, 1-[3-(dimethylamino)phenyl]-3-methyl-4-[2-(morpholin-4-yl)pyrimidin-5-yl]-1H-pyrazolo[3,4-b]pyridine-6-carboxylic acid], the “% Activation” value in test [1] (setting [3]) was 367.15%; in test [2] (setting [7]), 169.65%. Also, the EC50 in test [1] (setting [5]) came out at 883 nM; in test [2] (setting [8]) it was 1040 nM.
`O=C(O)c1cc(N2CCC(N3CCCC(F)C3)CC2)c2c(C3CCC3)nn(-c3ccc(F)cc3)c2n1` (centres unmarked) [compound 872, 3-cyclobutyl-4-(3-fluoro[1,4′-bipiperidin]-1′-yl)-1-(4-fluorophenyl)-1H-pyrazolo[3,4-b]pyridine-6-carboxylic acid]: the “% Activation” value in test [1] (setting [3]) turned out to be 548.45%; in test [2] (setting [4]), 368.7%. Also, the EC50 stood at 172 nM in test [1] (setting [5]) and 591 nM in test [2] (setting [6]).
Taken in the same sequence, the figures for `CN(C)C[C@H](F)C1CCN(c2cc(C(=O)O)nc3c2c(C2CCC2)nn3-c2ccccc2)CC1` [compound 455, 3-cyclobutyl-4-{4-[(1R)-2-(dimethylamino)-1-fluoroethyl]piperidin-1-yl}-1-phenyl-1H-pyrazolo[3,4-b]pyridine-6-carboxylic acid] were 421.5%, 288.4%, 452 nM and 1110 nM.
Turning to `CC(=O)Nc1ccc(-c2cc(C(=O)O)nc3c2c(C(C)C)nn3C2CCCCC2)cc1` [compound 171, 4-(4-acetamidophenyl)-1-cyclohexyl-3-(propan-2-yl)-1H-pyrazolo[3,4-b]pyridine-6-carboxylic acid], the results for the “% Activation” value in test [1] (setting [3]) and in test [2] (setting [7]) were 450.73% and 199.67%, respectively. Besides, the EC50 in test [1] (setting [5]) was found to be 1070 nM; in test [2] (setting [8]) it was 1190 nM.
On to `O=C(O)c1cc(N2CCC3(C2)CC3(F)F)c2c(C3CCC3)nn(-c3ccccc3)c2n1` (centres unmarked) [compound 423, 3-cyclobutyl-4-(1,1-difluoro-5-azaspiro [2. 4]heptan-5-yl)-1-phenyl-1H-pyrazolo[3,4-b]pyridine-6-carboxylic acid], for which the “% Activation” value stood at 299.25% in test [1] (setting [3]) and 113.4% in test [2] (setting [4]). Besides, the EC50 in test [1] (setting [5]) was 920 nM; in test [2] (setting [6]) it was 934 nM.
Take `COC1CCN(c2ccc(-c3cc(C(=O)O)nc4c3c(C(C)C)nn4C3CCCCC3)cn2)C1` (centres unmarked) [compound 224, 1-cyclohexyl-4-[6-(3-methoxypyrrolidin-1-yl)pyridin-3-yl]-3-(propan-2-yl)-1H-pyrazolo[3,4-b]pyridine-6-carboxylic acid]: the results for the “% Activation” value in test [1] (setting [3]) and in test [2] (setting [7]) were 396.65% and 189.6%, respectively. The EC50 amounted to 896 nM in test [1] (setting [5]) and 1180 nM in test [2] (setting [8]).
As for `CCOCC(=O)N1CCN(c2cc(C(=O)O)nc3c2c(C(C)C)nn3-c2ccc(F)cc2)CC1` [compound 775, 4-[4-(ethoxyacetyl)piperazin-1-yl]-1-(4-fluorophenyl)-3-(propan-2-yl)-1H-pyrazolo[3,4-b]pyridine-6-carboxylic acid], the “% Activation” value in test [1] (setting [3]) is listed as 262.4%; in test [2] (setting [4]), 93.07%. In addition, the EC50 in test [1] (setting [5]) and in test [2] (setting [6]) was 1670 nM in each case.
Turning to `CS(=O)(=O)N1CCN(c2cc(C(=O)O)nc3c2c(C2CCC2)nn3-c2ccccc2)CC1` [compound 523, 3-cyclobutyl-4-[4-(methanesulfonyl)piperazin-1-yl]-1-phenyl-1H-pyrazolo[3,4-b]pyridine-6-carboxylic acid], the “% Activation” value in test [1] (setting [3]) is reported as 320.1%; in test [2] (setting [4]), 136.2%. In addition, the EC50 is 630 nM in test [1] (setting [5]) and 2850 nM in test [2] (setting [6]).
As for `CC(C)c1nn(-c2cc(N3CCOCC3)ccn2)c2nc(C(=O)O)cc(-c3ccc(N4CCOCC4)cc3)c12` [compound 241, 4-[4-(morpholin-4-yl)phenyl]-1-[4-(morpholin-4-yl)pyridin-2-yl]-3-(propan-2-yl)-1H-pyrazolo[3,4-b]pyridine-6-carboxylic acid], the entries for the “% Activation” value in test [1] (setting [3]) and in test [2] (setting [7]) were 259.75% and 60.46%, respectively. Besides, the values for the concentration for a half-maximal effect (EC50) in test [1] (setting [5]) and in test [2] (setting [8]) were 2140 nM and 3340 nM, respectively.
`O=C(O)c1cc(N2CCN(C3CCC3)CC2)c2c(C3CCC3)nn(-c3ccccc3)c2n1` [compound 450, 3-cyclobutyl-4-(4-cyclobutylpiperazin-1-yl)-1-phenyl-1H-pyrazolo[3,4-b]pyridine-6-carboxylic acid]: the “% Activation” value is listed as 377.1% in test [1] (setting [3]) and 165.85% in test [2] (setting [4]). Moreover, the figures for the EC50 in test [1] (setting [5]) and in test [2] (setting [6]) were 456 nM and 1090 nM, respectively.
The matching figures for `N#CCCN1CCN(c2cc(C(=O)O)nc3c2c(C2CCC2)nn3-c2ccccc2)CC1` [compound 561, 4-[4-(2-cyanoethyl)piperazin-1-yl]-3-cyclobutyl-1-phenyl-1H-pyrazolo[3,4-b]pyridine-6-carboxylic acid]: 348%, 174.8%, 427 nM and 1590 nM.
For the compound `Cc1nn(-c2ccccc2)c2nc(C(=O)O)cc(N3CC4(CCOC4)C3)c12` [compound 306, 3-methyl-4-(6-oxa-2-azaspiro[3.4]octan-2-yl)-1-phenyl-1H-pyrazolo[3,4-b]pyridine-6-carboxylic acid], the “% Activation” value in test [1] (setting [3]) was 147.8%; in test [2] (setting [7]) it was 22.69%. The values for the EC50 in test [1] (setting [5]) and in test [2] (setting [8]) were 2510 nM and 7500 nM, respectively.
The matching figures for `Cc1nn(-c2ccccc2)c2nc(C(=O)O)cc(-c3ccc(N4CCC4)cc3)c12` [compound 135, 4-[4-(azetidin-1-yl)phenyl]-3-methyl-1-phenyl-1H-pyrazolo[3,4-b]pyridine-6-carboxylic acid]: 355.55%, 165.1%, 1460 nM and 2200 nM.
Taken in the same sequence, the figures for `O=C(O)c1cc(-c2ccc(N3CCOCC3)cc2)c2c(C3CCC3)nn(-c3cccc(F)c3)c2n1` [compound 349, 3-cyclobutyl-1-(3-fluorophenyl)-4-[4-(morpholin-4-yl)phenyl]-1H-pyrazolo[3,4-b]pyridine-6-carboxylic acid] were 382.73%, 208.2%, 236 nM and 460 nM.
Regarding `O=C(O)c1cc(N2CC(F)(F)C[C@@H]2CO)c2c(C3CCC3)nn(-c3ccccc3)c2n1` [compound 506, 3-cyclobutyl-4-[(2R)-4,4-difluoro-2-(hydroxymethyl)pyrrolidin-1-yl]-1-phenyl-1H-pyrazolo[3,4-b]pyridine-6-carboxylic acid], the results for the “% Activation” value in test [1] (setting [3]) and in test [2] (setting [4]) were 137.7% and 40.12%, respectively. In addition, the EC50 in test [1] (setting [5]) is over 10000 nM; in test [2] (setting [6]) it was 3340 nM.

Source of the values: patent publication US9796711B2, “Substituted pyrazolo[3,4-b]pyridin-6-carboxylic acids and method of use” (AbbVie S.àr.l., priority 2015, dated 2017).
